Laboratory results: article PMC10818523, “Novel Flurbiprofen Derivatives as Antioxidant and Anti-Inflammatory Agents: Synthesis, In Silico, and In Vitro Biological Evaluation” (Molecules, 2024)
Like-named read-outs stand apart in the source and are kept apart here.

What was measured:
[1] = Hydrogen peroxide scavenging activity (HPSA); assay type: biochemical; settings: antioxidant activity, H2O2 scavenging, 10 min at 37 °C, mean ± SD of triplicates
Method: The Manolov et al. method was used to assess the hydrogen peroxide scavenging capability. A 43 mM solution of H2O2 was prepared in potassium phosphate buffer solution (0.2 M, pH 7.4). The analysis of the samples was carried out as follows: in test tubes, 0.6 mL H2O2 (43 mM), 1 mL sample or reference compounds with different concentrations (20–1000 µg/mL), and 2.4 mL potassium phosphate buffer solution were mixed. The mixture was stirred and incubated in the dark for 10 min at 37 °C. Absorbance was measured at 230 nm with a spectrophotometer (Camspec M508, Leeds, UK) against a blank solution containing phosphate buffer and H2O2 without the sample. Ascorbic acid and quercetin were used as reference compounds. The percentage HPSA of the samples was evaluated by comparing with a blank sample and calculated using the following formula: I,%(HPSA)=Ablank−(ATS−ACS)/Ablank×100 where Ablank is the absorbance of the blank sample, ACS is the absorbance of the control sample, and ATS is the absorbance of the test sample.
(§1) All of the analyses were made in triplicates. Data were expressed as mean ± SD. The level of significance was set at p < 0.05. The mean IC50 value was estimated based on three replicates by interpolating the graphical dependence of activity on concentration. Statistical program SPSS 19.0 software was used for data analysis by one-way ANOVA followed by Duncan’s post hoc test to evaluate differences between mean values of activities (SPSS Inc., Chicago, IL, USA).

bovine trypsin = molecular target: T1, bovine trypsin (Bos taurus, UniProt P00760); experiment: Antitryptic activity (ATA); assay type: biochemical; settings: human albumin as substrate, mean ± SD of triplicates
T1 sequence (P00760 24-246): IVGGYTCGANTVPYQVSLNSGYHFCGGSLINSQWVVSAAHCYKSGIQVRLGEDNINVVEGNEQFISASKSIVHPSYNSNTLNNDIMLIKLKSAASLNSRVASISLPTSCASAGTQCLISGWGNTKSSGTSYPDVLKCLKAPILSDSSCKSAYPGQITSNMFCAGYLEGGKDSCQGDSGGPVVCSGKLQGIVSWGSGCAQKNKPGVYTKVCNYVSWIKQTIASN
Method: This method is known also as an in vitro anti-arthritic activity. The analysis was performed according to the method of Oyedapo and Femurewa with minor modification as described by Manolov et al.. The reaction mixture was containing 2 mL 0.06 mg/mL bovine trypsin, 1 mL Tris-HCl buffer (20 mM, pH 7.4) and 1 mL test sample or reference (in methanol) of different concentrations (20-1000 μg/mL). The mixture was incubated at 37 °C for 5 min. Then 1 mL of human albumin (4% v/v) was added. The mixture was incubated for an additional 20 min. To the mixture 2 mL of 70% perchloric acid was added for termination of the reaction. The cloudy suspension was cooled and centrifuged at 5000 rpm for 20 min. The absorbance of the supernatant was measured at 280 nm with a spectrophotometer ([…], UK) against control solution. The control solution was sample or reference in methanol with different concentrations. Ibuprofen and flurbiprofen were used as reference compounds. The analysis was performed three times. The percentage of antitryptic activity (ATA) of the samples was evaluated by comparing with a blank sample. The blank sample is prepared as the test sample but with a small exception-perchloric acid is added before albumin. %ATA=Ablank-ATS-ACS/Ablank×100 where Ablank is the absorbance of the blank sample, ACS is the absorbance of the control solution (test sample in different concentrations) and ATS is the absorbance of the test samples. All of the analyses were made in triplicates. Data were expressed as mean ± SD. The level of significance was set at p < 0.05. The mean IC50 value was estimated based on three replicates by interpolating the graphical dependence of activity on concentration. Statistical program SPSS 19.0 software was used for data analysis by one-way ANOVA followed by Duncan's post hoc test to evaluate differences between mean values of activities (SPSS Inc., Chicago, IL, USA).

[2] = Experimental determination of lipophilicity (RM), reversed-phase thin-layer chromatography; assay type: physicochemical; settings: dimensionless, from thin-layer chromatography Rf
Source text: Lipophilicity can be assessed through either calculation or experimental methods. In our study, we determined the lipophilicity of the resulting flurbiprofen derivatives using a practical approach, employing reversed-phase thin-layer chromatography, a technique previously reported by Hadjipavlou-Litina.
The method employed for assessing the lipophilicity of flurbiprofen derivatives followed the procedure outlined by Hadjipavlou-Litina.

human albumin = human albumin (Homo sapiens, UniProt P02768); experiment: Inhibition of albumin denaturation (IAD); assay type: biochemical; settings: heated at 70 °C for 15 min, mean ± SD of triplicates
Sequence of human albumin (P02768 25-609): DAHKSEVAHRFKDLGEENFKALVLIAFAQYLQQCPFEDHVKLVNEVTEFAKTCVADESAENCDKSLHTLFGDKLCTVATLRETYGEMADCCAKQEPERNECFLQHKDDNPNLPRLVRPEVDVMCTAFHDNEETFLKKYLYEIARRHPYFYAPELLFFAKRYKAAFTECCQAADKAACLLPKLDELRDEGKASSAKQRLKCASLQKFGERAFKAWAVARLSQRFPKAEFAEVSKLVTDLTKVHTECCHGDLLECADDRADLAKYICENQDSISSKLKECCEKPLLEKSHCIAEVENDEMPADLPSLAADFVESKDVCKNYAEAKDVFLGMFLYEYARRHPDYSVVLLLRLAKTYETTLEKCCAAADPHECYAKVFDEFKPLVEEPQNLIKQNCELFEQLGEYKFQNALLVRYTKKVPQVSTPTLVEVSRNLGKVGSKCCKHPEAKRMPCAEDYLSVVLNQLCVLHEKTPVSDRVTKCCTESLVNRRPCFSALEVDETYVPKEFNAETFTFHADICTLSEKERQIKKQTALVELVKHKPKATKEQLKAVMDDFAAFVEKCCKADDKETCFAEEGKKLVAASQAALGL
Method: In vitro analysis of anti-inflammatory activity was assessed as inhibition of albumin denaturation (IAD). The analysis was performed according Manolov et al. method. The experiment was performed with human albumin. The solution of albumin (1%) was prepared in distilled water (pH 7.4). The tested and the reference compounds were dissolved firstly in PBS resulting in 1000 μg/mL stock solutions. Then a series of working solutions with different concentrations (20–500 μg/mL) in PBS were prepared. The reaction mixture was containing 2 mL test sample/reference of different concentrations and 1 mL albumin (1%). The mixture was incubated at 37 °C for 15 min and then heated at 70 °C for 15 min in water bath. After cooling, the turbidity was measured at 660 nm with a spectrophotometer (Camspec M508, Leeds, UK). Ibuprofen and flurbiprofen were used as reference compounds. The experiment was performed three times. Percentage inhibition of albumin denaturation (IAD) was calculated against the control. The control sample is albumin with the same concentration dissolved in distilled water. %IAD=Ablank−Asample/Ablank×100
as §1

rats = experiment: Prediction of acute rat toxicity by GUSAR software; settings: from predicted rat LD50, IV

Row | Structure (SMILES) | IC50 [1] [µM] | IC50 ([1]; listed as quercetin) [µM] | IC50 (bovine trypsin) [µM] | RM ± SD [2] | IC50 (human albumin; read-out: IAD IC50 ± SD) [µM] | toxicity relative to flurbiprofen, intravenous (rats) | IC50 (human albumin; IAD IC50 ± SD) [µM] | IC50 ([1]; listed as ascorbic acid) [µM]
1 | O=c1c(O)c(-c2ccc(O)c(O)c2)oc2cc(O)cc(O)c12 [Qrc, quercetin] | 229 ± 6 | 229 | – | – | – | – | – | –
2 | COc1cccc(CCNC(=O)C(C)c2ccc(-c3ccccc3)c(F)c2)c1 (centres unmarked) [Compound 4b, 2-(2-fluoro-[1,1′-biphenyl]-4-yl)-N-(3-methoxyphenethyl)propanamide] | 201 ± 3.3 | – | 208 ± 15 | 1.13 ± 0.02 | 188 ± 3 | – | – | –
3 | CC(C)Cc1ccc(C(C)C(=O)O)cc1 (centres unmarked) [Ibu, ibuprofen, reference compound] | 618 ± 25 | – | 1260 ± 44 | 1.11 ± 0.01 | – | – | – | –
4 | COc1ccc(CCNC(=O)C(C)c2ccc(-c3ccccc3)c(F)c2)cc1 (centres unmarked) [Compound 4c, 2-(2-fluoro-[1,1′-biphenyl]-4-yl)-N-(4-methoxyphenethyl)propanamide] | 144 ± 10 | – | 203 ± 14 | 1.21 ± 0.02 | 196.9 ± 0.5 | – | – | –
5 | CC(C(=O)NCCc1cccc(Cl)c1)c1ccc(-c2ccccc2)c(F)c1 (centres unmarked) [Compound 4e, N-(3-chlorophenethyl)-2-(2-fluoro-[1,1′-biphenyl]-4-yl)propanamide] | 199 ± 9 | – | 198 ± 14 | 1.41 ± 0.03 | 193 ± 2.2 | four times greater toxicity than flurbiprofen | – | –
6 | CC(C(=O)NCCc1ccccc1)c1ccc(-c2ccccc2)c(F)c1 (centres unmarked) [Compound 4a, 2-(2-fluoro-[1,1′-biphenyl]-4-yl)-N-phenethylpropanamide] | 223 ± 6 | – | 2260 ± 73 | 1.24 ± 0.02 | 198 ± 2.3 | – | – | –
7 | CC(C(=O)O)c1ccc(-c2ccccc2)c(F)c1 (centres unmarked) [Flu, flurbiprofen] | 1160 ± 64 | – | 441 ± 36 | 1.37 ± 0.02 | – | – | 339 | –
8 | O=C1O[C@H]([C@@H](O)CO)C(O)=C1O [AA, ascorbic acid] | 141 ± 2 | – | – | – | – | – | – | 141
9 | COc1ccc(CCNC(=O)C(C)c2ccc(-c3ccccc3)c(F)c2)cc1OC (centres unmarked) [Compound 4d, N-(3,4-dimethoxyphenethyl)-2-(2-fluoro-[1,1′-biphenyl]-4-yl)propanamide] | 199.5 ± 1.3 | – | 215 ± 5 | 1.33 ± 0.02 | 173.74 ± 0.13 | – | – | –
